Laboratory results from patent EP4635500A1, “THERAPEUTIC AGENT FOR BACTERIAL INFECTION” (Sumitomo Pharma Co., Ltd., priority 2022, dated 2024).
Values after ≈ are worked out from the molar mass of the structure shown. Like-named read-outs stand apart in the source and are kept apart here.

How the values were obtained:
[1] = system: Enterobacterales; assay: MIC, broth microdilution, CDC/FDA Antibiotic Resistance Isolate Bank (Example 7, Tables 8, 11, 12); format: cell-based; settings: for MIC50: read-out: MIC50; for MIC90: read-out: MIC90; for MIC: read-out: MIC
[2] = system: A. baumannii; assay: MIC, broth microdilution, CDC/FDA Antibiotic Resistance Isolate Bank (Example 7, Tables 9, 13, 14); format: cell-based, Acinetobacter baumannii; settings: for MIC: read-out: MIC
[3] = 154 strains of Enterobacterales
[4] = carbapenemase-producing Enterobacterales, Metallo-β-lactamase (N = 47)
[5] = carbapenemase-producing Enterobacterales, Serine carbapenemase (N=61)

CN(C)c1cc(NC(=O)CNC(C)(C)C)c(O)c2c1C[C@H]1C[C@H]3[C@H](N(C)C)C(O)=C(C(N)=O)C(=O)[C@@]3(O)C(O)=C1C2=O [Tigecycline, tigecycline]
MICrange [1, 3]: 0.12 to 4 µg/mL
MIC50 [1, 3]: 0.5 µg/mL (≈ 0.854 µM)
MIC80 ([1]; 154 strains of Enterobacterales, read-out: MIC80): 1 µg/mL (≈ 1.71 µM)
MIC90 [1, 3]: 2 µg/mL (≈ 3.41 µM)
MIC ([1]; Enterobacter cloacae, Enterobacter cloacae complex, KUB No. 5661, AR Bank # 164): 0.5 µg/mL (≈ 0.854 µM)
MIC ([1]; Enterobacter cloacae, KUB No. 5660, AR Bank # 163): 4 µg/mL (≈ 6.83 µM)
MIC ([1]; Enterobacter cloacae, KUB No. 5761, AR Bank # 365): 2 µg/mL (≈ 3.41 µM)
MIC ([1]; Enterobacter cloacae, KUB No. 5762, AR Bank # 366): 2 µg/mL (≈ 3.41 µM)
MIC ([1]; Enterobacter cloacae, KUB No. 5763, AR Bank # 367): 0.5 µg/mL (≈ 0.854 µM)
MIC ([1]; Enterobacter cloacae, KUB No. 5778, AR Bank # 432): 1 µg/mL (≈ 1.71 µM)
MIC ([1]; Escherichia coli, KUB No. 5764, AR Bank # 368): 0.25 µg/mL (≈ 0.427 µM)
MIC ([1]; Escherichia coli, KUB No. 5765, AR Bank # 369): 0.25 µg/mL (≈ 0.427 µM)
MIC ([1]; Escherichia coli, KUB No. 5766, AR Bank # 370): 0.25 µg/mL (≈ 0.427 µM)
MIC ([1]; Escherichia coli, KUB No. 5767, AR Bank # 371): 0.25 µg/mL (≈ 0.427 µM)
MIC ([1]; Escherichia coli, KUB No. 5768, AR Bank # 372): 0.5 µg/mL (≈ 0.854 µM)
MIC ([1]; Escherichia coli, KUB No. 5769, AR Bank # 373): 0.5 µg/mL (≈ 0.854 µM)
MIC ([1]; Escherichia coli, KUB No. 5770, AR Bank # 374): 0.5 µg/mL (≈ 0.854 µM)
MIC ([1]; Escherichia coli, KUB No. 5774, AR Bank # 378): 0.25 µg/mL (≈ 0.427 µM)
MIC ([1]; Escherichia coli, KUB No. 5779, AR Bank # 433): 0.5 µg/mL (≈ 0.854 µM)
MIC ([1]; Escherichia coli, KUB No. 5780, AR Bank # 434): 0.5 µg/mL (≈ 0.854 µM)
MIC ([1]; Escherichia coli, KUB No. 5781, AR Bank # 435): 0.5 µg/mL (≈ 0.854 µM)
MIC ([1]; Escherichia, KUB No. 57, AR Bank # 436 (row cut off)): 0.5 µg/mL (≈ 0.854 µM)
MIC ([1]; Klebsiella aerogenes, Enterobacter aerogenes, KUB No. 5777, AR Bank # 431): 1 µg/mL (≈ 1.71 µM)
MIC ([1]; Klebsiella oxytoca, KUB No. 5771, AR Bank # 375): 0.5 µg/mL (≈ 0.854 µM)
MIC ([1]; Klebsiella oxytoca, KUB No. 5776, AR Bank # 380): 2 µg/mL (≈ 3.41 µM)
MIC ([1]; Klebsiella pnemnonine, KUB No. 5758, AR Bank # 362): 1 µg/mL (≈ 1.71 µM)
MIC ([1]; Klebsiella pneumoniae, KUB No. 5757, AR Bank # 361): 1 µg/mL (≈ 1.71 µM)
MIC ([1]; Klebsiella pneumoniae, KUB No. 5759, AR Bank # 363): 0.5 µg/mL (≈ 0.854 µM)
MIC ([1]; Klebsiella pneumoniae, KUB No. 5760, AR Bank # 364): 1 µg/mL (≈ 1.71 µM)
MIC ([1]; Klebsiella pneumoniae, KUB No. 5772, AR Bank # 376): 1 µg/mL (≈ 1.71 µM)
MIC ([1]; Proteus mirabilis, KUB No. 5773, AR Bank # 377): 4 µg/mL (≈ 6.83 µM)
MIC ([1]; Proteus mirabilis, KUB No. 5775, AR Bank # 379): 0.5 µg/mL (≈ 0.854 µM)
MIC50 [1, 4]: 0.5 µg/mL (≈ 0.854 µM)
MIC90 [1, 4]: 2 µg/mL (≈ 3.41 µM)
MIC50 [1, 5]: 1 µg/mL (≈ 1.71 µM)
MIC90 [1, 5]: 2 µg/mL (≈ 3.41 µM)
MIC90 ([1]; metallo-β-lactamase-producing strains of Enterobacterales): 2 µg/mL (≈ 3.41 µM)
MICrange ([2]; 55 isolates of A. baumannii): 0.25 to 2 µg/mL
MIC ([2]; Acinetobacter baumannii, A. baumannii KUB No. 5567, AR Bank #70, OXA-58, OXA-100): 0.25 µg/mL (≈ 0.427 µM)
MIC ([2]; Acinetobacter baumannii, A. baumannii KUB No. 5575, AR Bank #78, OXA-71): 2 µg/mL (≈ 3.41 µM)
MIC ([2]; Acinetobacter baumannii, A. baumannii KUB No. 5580, AR Bank #83, OXA-23, OXA-69, NDM-1): 0.5 µg/mL (≈ 0.854 µM)
MIC ([2]; Acinetobacter baumannii, A. baumannii KUB No. 5585, AR Bank #88, OXA-64, NDM-1): 0.25 µg/mL (≈ 0.427 µM)
MIC ([2]; Acinetobacter baumannii, A. baumannii KUB No. 5598, AR Bank #101, OXA-24, OXA-65): 1 µg/mL (≈ 1.71 µM)
MIC ([2]; Acinetobacter baumannii, A. baumannii KUB No. 5599, AR Bank #102, OXA-66): 1 µg/mL (≈ 1.71 µM)
MIC ([2]; Acinetobacter baumannii, A. baumannii KUB No. 5706, AR Bank #273, OXA-23, OXA-66): 0.5 µg/mL (≈ 0.854 µM)
MIC ([2]; Acinetobacter baumannii, A. baumannii KUB No. 5707, AR Bank #274, OXA-66, OXA-72): 1 µg/mL (≈ 1.71 µM)
MIC ([2]; Acinetobacter baumannii, A. baumannii KUB No. 5708, AR Bank #275, OXA-23, OXA-66): 0.5 µg/mL (≈ 0.854 µM)
MIC ([2]; Acinetobacter baumannii, A. baumannii KUB No. 5709, AR Bank #276, no carbapenemase genes (-)): 1 µg/mL (≈ 1.71 µM)
MIC ([2]; Acinetobacter baumannii, A. baumannii KUB No. 5710, AR Bank #277, OXA-24, OXA-65): 1 µg/mL (≈ 1.71 µM)
MIC ([2]; Acinetobacter baumannii, A. baumannii KUB No. 5711, AR Bank #278, OXA-23, OXA-66): 0.5 µg/mL (≈ 0.854 µM)
MIC ([2]; Acinetobacter baumannii, A. baumannii KUB No. 5712, AR Bank #279, OXA-23, OXA-66): 0.5 µg/mL (≈ 0.854 µM)
MIC ([2]; Acinetobacter baumannii, A. baumannii KUB No. 5713, AR Bank #280, OXA-66): 1 µg/mL (≈ 1.71 µM)
MIC ([2]; Acinetobacter baumannii, A. baumannii KUB No. 5714, AR Bank #281, OXA-82): 2 µg/mL (≈ 3.41 µM)
MIC ([2]; Acinetobacter baumannii, A. baumannii KUB No. 5715, AR Bank #282, OXA-23, OXA-66): 0.5 µg/mL (≈ 0.854 µM)
MIC ([2]; Acinetobacter baumannii, A. baumannii KUB No. 5716, AR Bank #283, OXA-23, OXA-66): 1 µg/mL (≈ 1.71 µM)
MIC ([2]; Acinetobacter baumannii, A. baumannii KUB No. 5717, AR Bank #284, OXA-24, OXA-65): 0.5 µg/mL (≈ 0.854 µM)
MIC ([2]; Acinetobacter baumannii, A. baumannii KUB No. 5718, AR Bank #285, OXA-24, OXA-65): 0.5 µg/mL (≈ 0.854 µM)
MIC ([2]; Acinetobacter baumannii, KUB No. 5719, AR Bank #286): 1 µg/mL (≈ 1.71 µM)
MIC ([2]; Acinetobacter baumannii, KUB No. 5720, AR Bank #287): 0.5 µg/mL (≈ 0.854 µM)
MIC ([2]; Acinetobacter baumannii, KUB No. 5721, AR Bank #288): 2 µg/mL (≈ 3.41 µM)
MIC ([2]; Acinetobacter baumannii, KUB No. 5722, AR Bank #259): 1 µg/mL (≈ 1.71 µM)
MIC ([2]; Acinetobacter baumannii, KUB No. 5723, AR Bank #290): 0.5 µg/mL (≈ 0.854 µM)
MIC ([2]; Acinetobacter baumannii, KUB No. 5724, AR Bank #291): 1 µg/mL (≈ 1.71 µM)
MIC ([2]; Acinetobacter baumannii, KUB No. 5725, AR Bank #292): 0.25 µg/mL (≈ 0.427 µM)
MIC ([2]; Acinetobacter baumannii, KUB No. 5726, AR Bank #293): 2 µg/mL (≈ 3.41 µM)
MIC ([2]; Acinetobacter baumannii, KUB No. 5727, AR Bank #294): 0.5 µg/mL (≈ 0.854 µM)
MIC ([2]; Acinetobacter baumannii, KUB No. 5728, AR Bank #295): 1 µg/mL (≈ 1.71 µM)
MIC ([2]; Acinetobacter baumannii, KUB No. 5729, AR Bank #296): 1 µg/mL (≈ 1.71 µM)
MIC ([2]; Acinetobacter baumannii, KUB No. 5730, AR Bank #297): 2 µg/mL (≈ 3.41 µM)
MIC ([2]; Acinetobacter baumannii, KUB No. 5731, AR Bank #298): 0.5 µg/mL (≈ 0.854 µM)
MIC ([2]; Acinetobacter baumannii, KUB No. 5732, AR Bank #299): 1 µg/mL (≈ 1.71 µM)
MIC ([2]; Acinetobacter baumannii, KUB No. 5733, AR Bank #300): 0.5 µg/mL (≈ 0.854 µM)
MIC ([2]; Acinetobacter baumannii, KUB No. 5734, AR Bank #301): 1 µg/mL (≈ 1.71 µM)
MIC ([2]; Acinetobacter baumannii, KUB No. 5735, AR Bank #302): 1 µg/mL (≈ 1.71 µM)
MIC ([2]; Acinetobacter baumannii, KUB No. 5736, AR Bank #303): 1 µg/mL (≈ 1.71 µM)
MIC ([2]; Acinetobacter baumannii, KUB No. 5737, AR Bank #304): 1 µg/mL (≈ 1.71 µM)
MIC ([2]; Acinetobacter baumannii, KUB No. 5738, AR Bank #305): 0.25 µg/mL (≈ 0.427 µM)
MIC ([2]; Acinetobacter baumannii, KUB No. 5739, AR Bank #306): 1 µg/mL (≈ 1.71 µM)
MIC ([2]; Acinetobacter baumannii, KUB No. 5740, AR Bank #307): 1 µg/mL (≈ 1.71 µM)
MIC ([2]; Acinetobacter baumannii, KUB No. 5741, AR Bank #308): 0.5 µg/mL (≈ 0.854 µM)
MIC ([2]; Acinetobacter baumannii, KUB No. 5742, AR Bank #309): 0.5 µg/mL (≈ 0.854 µM)
MIC ([2]; Acinetobacter baumannii, KUB No. 5743, AR Bank #310): 1 µg/mL (≈ 1.71 µM)
MIC ([2]; Acinetobacter baumannii, KUB No. 5744, AR Bank #311): 0.5 µg/mL (≈ 0.854 µM)
MIC ([2]; Acinetobacter baumannii, KUB No. 5745, AR Bank #312): 0.25 µg/mL (≈ 0.427 µM)
MIC ([2]; Acinetobacter baumannii, KUB No. 5746, AR Bank #313): 0.5 µg/mL (≈ 0.854 µM)
MIC50 ([2]; Acinetobacter baumannii, 55 isolates of A. baumannii, read-out: MIC50): 1 µg/mL (≈ 1.71 µM)
MIC80 ([2]; Acinetobacter baumannii, 55 isolates of A. baumannii, read-out: MIC80): 1 µg/mL (≈ 1.71 µM)
MIC90 ([2]; Acinetobacter baumannii, 55 isolates of A. baumannii, read-out: MIC90): 1 µg/mL (≈ 1.71 µM)
Number of isolates at MIC ≤[…] ([2]; MIC distribution, metallo-β-lactamase-producing A. baumannii, inhibitor µg/mL in parentheses): 3
